According to PubChem BioAssay (NCI):
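Briefly, cells in 96-well plates were exposed to five compound concentrations for 48 h, and endpoints were estimated by linear interpolation. At the GI50, growth is halved. At the TGI there is no net growth.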

Key:
Test in all cases: NCI anticancer screen, dose series, 48 h
SK-OV-3 ovarian = system: SK-OV-3 ovarian
PC-3 prostate = system: PC-3 prostate
U251 CNS = system: U251 CNS
SR leukemia = system: SR leukemia
NCI-H23 lung = system: NCI-H23 lung
COLO 205 colon = system: COLO 205 colon
BT-549 breast = system: BT-549 breast
HL-60(TB) leukemia = system: HL-60(TB) leukemia
HOP-92 NSCLC = system: HOP-92 NSCLC
K-562 leukemia = system: K-562 leukemia
SN12C renal = system: SN12C renal
HCT-116 colon = system: HCT-116 colon
786-0 renal = system: 786-0 renal
UACC-62 melanoma = system: UACC-62 melanoma
M14 melanoma = system: M14 melanoma
IGROV1 ovarian = system: IGROV1 ovarian
MOLT-4 leukemia = system: MOLT-4 leukemia
SF-295 CNS = system: SF-295 CNS
DU-145 prostate = system: DU-145 prostate
NCI/ADR-RES ovarian = system: NCI/ADR-RES ovarian
TK-10 renal = system: TK-10 renal
CAKI-1 renal = system: CAKI-1 renal
NCI-H226 lung = system: NCI-H226 lung
CCRF-CEM leukemia = system: CCRF-CEM leukemia
MDA-MB-231 breast = system: MDA-MB-231 breast
MDA-MB-435 = system: MDA-MB-435
ACHN renal = system: ACHN renal
SNB-75 CNS = system: SNB-75 CNS
A549 NSCLC = system: A549 NSCLC
HS 578T breast = system: HS 578T breast
T-47D breast = system: T-47D breast
HCC-2998 colon = system: HCC-2998 colon
UO-31 renal = system: UO-31 renal
NCI-H522 lung = system: NCI-H522 lung
LOX IMVI melanoma = system: LOX IMVI melanoma
MCF7 breast = system: MCF7 breast
EKVX NSCLC = system: EKVX NSCLC
NCI-H460 lung = system: NCI-H460 lung
MALME-3M melanoma = system: MALME-3M melanoma
OVCAR-3 ovarian = system: OVCAR-3 ovarian
RXF 393 renal = system: RXF 393 renal
SK-MEL-28 melanoma = system: SK-MEL-28 melanoma
SNB-19 CNS = system: SNB-19 CNS
UACC-257 melanoma = system: UACC-257 melanoma
SF-539 CNS = system: SF-539 CNS
SF-268 CNS = system: SF-268 CNS
HOP-62 NSCLC = system: HOP-62 NSCLC
A498 renal = system: A498 renal
KM12 colon = system: KM12 colon
HCT-15 colon = system: HCT-15 colon
HT29 colon = system: HT29 colon
SK-MEL-2 melanoma = system: SK-MEL-2 melanoma
OVCAR-5 ovarian = system: OVCAR-5 ovarian
SW-620 colon = system: SW-620 colon
OVCAR-4 ovarian = system: OVCAR-4 ovarian
SK-MEL-5 melanoma = system: SK-MEL-5 melanoma
OVCAR-8 ovarian = system: OVCAR-8 ovarian
RPMI-8226 leukemia = system: RPMI-8226 leukemia

## COc1ccc(CNc2c3ccccc3nc3ccc(OC)cc23)cc1
SK-OV-3 ovarian
  GI50: 4.83 µM
  TGI: 17.2 µM
PC-3 prostate
  GI50: 2.8 µM
  TGI: 11.8 µM
U251 CNS
  GI50: 3.18 µM
  TGI: 11.2 µM
SR leukemia
  GI50: 1860 nM
  TGI: 5.81 µM
NCI-H23 lung
  GI50: 1.78 µM
  TGI: 4.71 µM
COLO 205 colon
  GI50: 1760 nM
  TGI: 3.99 µM
BT-549 breast
  GI50: 4.25 µM
  TGI: 15.8 µM
HL-60(TB) leukemia
  GI50: 2.15 µM
  TGI: 4.73 µM
HOP-92 NSCLC
  GI50: 2170 nM
  TGI: 7.69 µM
K-562 leukemia
  GI50: 2.27 µM
  TGI: 11.1 µM
SN12C renal
  GI50: 3.31 µM
  TGI: 12.6 µM
HCT-116 colon
  GI50: 2.55 µM
  TGI: 11.6 µM
786-0 renal
  GI50: 2.02 µM
  TGI: 4.55 µM
UACC-62 melanoma
  GI50: 1.79 µM
  TGI: 3.75 µM
M14 melanoma
  GI50: 1900 nM
  TGI: 4.26 µM
IGROV1 ovarian
  GI50: 3.02 µM
  TGI: 11.1 µM
MOLT-4 leukemia
  GI50: 2.75 µM
  TGI: 10.3 µM
SF-295 CNS
  GI50: 1730 nM
  TGI: 4.27 µM
DU-145 prostate
  GI50: 3.16 µM
  TGI: 10.9 µM
NCI/ADR-RES ovarian
  GI50: 2.22 µM
  TGI: 7.52 µM
TK-10 renal
  GI50: 3.77 µM
  TGI: 13.9 µM
CAKI-1 renal
  GI50: 1760 nM
  TGI: 3.72 µM
NCI-H226 lung
  GI50: 2.54 µM
  TGI: 9.14 µM
CCRF-CEM leukemia
  GI50: 3.09 µM
  TGI: 13.3 µM
MDA-MB-231 breast
  GI50: 1.9 µM
  TGI: 4.69 µM
MDA-MB-435
  GI50: 1990 nM
  TGI: 6.32 µM
ACHN renal
  GI50: 2.72 µM
  TGI: 10.1 µM
SNB-75 CNS
  GI50: 2190 nM
  TGI: 8.24 µM
A549 NSCLC
  GI50: 2.59 µM
  TGI: 7.46 µM
HS 578T breast
  GI50: 2850 nM
  TGI: 8.68 µM
T-47D breast
  GI50: 3.54 µM
  TGI: 18.9 µM
HCC-2998 colon
  GI50: 1.85 µM
  TGI: 3.76 µM
UO-31 renal
  GI50: 1.93 µM
  TGI: 9.13 µM
NCI-H522 lung
  GI50: 3.17 µM
  TGI: 14.3 µM
LOX IMVI melanoma
  GI50: 1.67 µM
  TGI: 3.31 µM
MCF7 breast
  GI50: 2110 nM
  TGI: 5.71 µM
EKVX NSCLC
  GI50: 3.15 µM
  TGI: 12.2 µM
NCI-H460 lung
  GI50: 2460 nM
  TGI: 6.41 µM
MALME-3M melanoma
  GI50: 1.89 µM
  TGI: 3.72 µM
OVCAR-3 ovarian
  GI50: 2610 nM
  TGI: 8.68 µM
RXF 393 renal
  GI50: 1.52 µM
  TGI: 3.04 µM
SK-MEL-28 melanoma
  GI50: 1.88 µM
  TGI: 3.68 µM
SNB-19 CNS
  GI50: 4.14 µM
  TGI: 16 µM
UACC-257 melanoma
  GI50: 2.15 µM
  TGI: 4.81 µM
SF-539 CNS
  GI50: 1.96 µM
  TGI: 4.13 µM
SF-268 CNS
  GI50: 3.75 µM
  TGI: 15.2 µM
HOP-62 NSCLC
  GI50: 3.38 µM
  TGI: 15.4 µM
A498 renal
  GI50: 1690 nM
  TGI: 3.33 µM
KM12 colon
  GI50: 3.3 µM
  TGI: 12.4 µM
HCT-15 colon
  GI50: 2270 nM
  TGI: 6.18 µM
HT29 colon
  GI50: 2110 nM
  TGI: 10.1 µM
SK-MEL-2 melanoma
  GI50: 2.37 µM
  TGI: 6.2 µM
OVCAR-5 ovarian
  GI50: 2.64 µM
  TGI: 9.52 µM
SW-620 colon
  GI50: 2080 nM
  TGI: 7.22 µM
OVCAR-4 ovarian
  GI50: 2.94 µM
  TGI: 10.5 µM
SK-MEL-5 melanoma
  GI50: 1950 nM
  TGI: 3.87 µM
OVCAR-8 ovarian
  GI50: 3.04 µM
  TGI: 13.5 µM

## C[C@@H]1N=C(c2ccc(Br)cc2)Nc2nc3ccccn3c2C1=O
SK-OV-3 ovarian
  GI50: 4.41 µM
  TGI: > 100 µM
PC-3 prostate
  GI50: 5.7 µM
  TGI: > 100 µM
U251 CNS
  GI50: 6.64 µM
  TGI: > 100 µM
SR leukemia
  GI50: 2420 nM
  TGI: > 100 µM
NCI-H23 lung
  GI50: 25.4 µM
  TGI: > 100 µM
COLO 205 colon
  GI50: 1870 nM
  TGI: 4.75 µM
BT-549 breast
  GI50: 5.49 µM
  TGI: > 100 µM
HL-60(TB) leukemia
  GI50: 6.49 µM
  TGI: > 100 µM
HOP-92 NSCLC
  GI50: 1160 nM
  TGI: 23 µM
K-562 leukemia
  GI50: 4.13 µM
  TGI: > 100 µM
SN12C renal
  GI50: 17.6 µM
  TGI: > 100 µM
HCT-116 colon
  GI50: 4.04 µM
  TGI: > 100 µM
786-0 renal
  GI50: 23.8 µM
  TGI: > 100 µM
UACC-62 melanoma
  GI50: 4.35 µM
  TGI: > 100 µM
M14 melanoma
  GI50: 3600 nM
  TGI: 48.2 µM
RPMI-8226 leukemia
  GI50: 7.31 µM
  TGI: > 100 µM
IGROV1 ovarian
  GI50: 51.9 µM
  TGI: > 100 µM
MOLT-4 leukemia
  GI50: 12.8 µM
  TGI: > 100 µM
DU-145 prostate
  GI50: 23.2 µM
  TGI: > 100 µM
NCI/ADR-RES ovarian
  GI50: 7.45 µM
  TGI: > 100 µM
TK-10 renal
  GI50: 21 µM
  TGI: > 100 µM
CAKI-1 renal
  GI50: 3090 nM
  TGI: > 100 µM
NCI-H226 lung
  GI50: 14.7 µM
  TGI: > 100 µM
CCRF-CEM leukemia
  GI50: 6.56 µM
  TGI: > 100 µM
MDA-MB-231 breast
  GI50: 6.08 µM
  TGI: > 100 µM
MDA-MB-435
  GI50: 1330 nM
  TGI: 7.1 µM
ACHN renal
  GI50: 6.75 µM
  TGI: > 100 µM
SNB-75 CNS
  GI50: 703 nM
  TGI: 7.06 µM
A549 NSCLC
  GI50: 6.7 µM
  TGI: > 100 µM
HS 578T breast
  GI50: 2810 nM
  TGI: 52 µM
T-47D breast
  GI50: 4.62 µM
  TGI: > 100 µM
HCC-2998 colon
  GI50: 21.9 µM
  TGI: > 100 µM
UO-31 renal
  GI50: 8.11 µM
  TGI: > 100 µM
NCI-H522 lung
  GI50: 3.24 µM
  TGI: 18.4 µM
LOX IMVI melanoma
  GI50: 6.34 µM
  TGI: > 100 µM
MCF7 breast
  GI50: 2990 nM
  TGI: > 100 µM
NCI-H460 lung
  GI50: 3060 nM
  TGI: > 100 µM
MALME-3M melanoma
  GI50: 15.2 µM
  TGI: > 100 µM
OVCAR-3 ovarian
  GI50: 3340 nM
  TGI: 17.8 µM
RXF 393 renal
  GI50: 10.2 µM
  TGI: 51.7 µM
SK-MEL-28 melanoma
  GI50: 9.51 µM
  TGI: > 100 µM
SNB-19 CNS
  GI50: 7.45 µM
  TGI: > 100 µM
UACC-257 melanoma
  GI50: 35.2 µM
  TGI: > 100 µM
SF-539 CNS
  GI50: 7.98 µM
  TGI: 85.3 µM
SF-268 CNS
  GI50: 17.2 µM
  TGI: > 100 µM
HOP-62 NSCLC
  GI50: 5.75 µM
  TGI: > 100 µM
A498 renal
  GI50: 3260 nM
  TGI: 38.2 µM
KM12 colon
  GI50: 3.39 µM
  TGI: > 100 µM
HCT-15 colon
  GI50: 3640 nM
  TGI: > 100 µM
HT29 colon
  GI50: 3730 nM
  TGI: > 100 µM
SK-MEL-2 melanoma
  GI50: 15.7 µM
  TGI: > 100 µM
OVCAR-5 ovarian
  GI50: 23.5 µM
  TGI: > 100 µM
SW-620 colon
  GI50: 3750 nM
  TGI: > 100 µM
OVCAR-4 ovarian
  GI50: 17.9 µM
  TGI: > 100 µM
SK-MEL-5 melanoma
  GI50: 2240 nM
  TGI: 40.5 µM
OVCAR-8 ovarian
  GI50: 17 µM
  TGI: > 100 µM
